Measured values as given in patent US20080118940A1, “PROTEASOMAL PEPTIDASE ACTIVITY AND THE USE THEREOF IN CLINICAL APPLICATIONS” (priority 2006, published 2008).

What was measured:
[1] = tested on: proteasomal trypsin-like activity (Tr-L); assay: Proteasome inhibitor effect on trypsin-like (Tr-L) peptidase activity, fluorogenic BZ-VGR-AMC assay; format: biochemical, human; settings: purified proteasome, plasma and white blood cell lysate; YU-101 0.4 μg/mL; substrate 200 μM
Description: (§1) Ch-L, Tr-L, and Cas-L activities in peripheral blood plasma from patients were measured as follows. Frozen patient plasma samples were processed by thawing at room temperature and mixed thoroughly. 45 μL of thawed plasma was pipetted into a microfuge tube (Tube 1), and 22.5 μL plasma was pipetted into another microfuge tube (Tube 2). 5 μL 10% SDS was pipetted into Tube 1, and 2.5 μL 10% tween 20 was pipetted into Tube 2. Each tube was mixed and incubated at room temperature for 15 minutes resulting in processed samples. All buffers, substrate stock solutions, controls, and microwell plates were equilibrated to room temperature. The proteasome control was placed on ice immediately after thawing. […] Cleavage of substrate was detected using the SPECTRAmax GEMINI EM instrument with SoftMax Pro data Collection software. […] Fluorescence excitation and emission wavelengths were 380 nm and 460 nm, respectively. Samples were read at 1 minute intervals over 30 minutes. Green fluorescence was detected in columns 1, 4, 7, and 10, representing Ch-L activity; blue fluorescence was detected in columns 3, 6, 9, and 12, representing Cas-L activity; and yellow fluorescence was detected in columns 2, 5, 8, and 11, representing Tr-L activity. […]

[2] = biological target: T1, human pancreatic α-chymotrypsin (Homo sapiens, UniProt P17538); assay: Specificity of proteasomal enzymatic assay: pancreatic chymotrypsin activity; format: biochemical; settings: Suc-LLVY-AMC
T1 construct: purchased Sigma C-8946; host or cells: isolated from human pancreas
Description: as §1

[3] = tested on: proteasome Ch-L activity in plasma from an AML patient; assay: Dose response of Ch-L activity in plasma from an AML patient; format: biochemical, human; settings: for % Inhibition / Activity: AML patient plasma
Description: (§2) Ch-L, Tr-L, and Cas-L activities in peripheral blood plasma from patients were measured as follows. Frozen patient plasma samples were processed by thawing at room temperature and mixed thoroughly. 45 μL of thawed plasma was pipetted into a microfuge tube (Tube 1), and 22.5 μL plasma was pipetted into another microfuge tube (Tube 2). 5 μL 10% SDS was pipetted into Tube 1, and 2.5 μL 10% tween 20 was pipetted into Tube 2. Each tube was mixed and incubated at room temperature for 15 minutes resulting in processed samples. All buffers, substrate stock solutions, controls, and microwell plates were equilibrated to room temperature. The proteasome control was placed on ice immediately after thawing. Substrate working solutions (1 mM) were made by adding 950 μL buffer A (1×HEPES/0.05% SDS) to 50 μL stock solution of Ch-L and Cas-L substrates (20 mM Suc-LLVY-AMC and 20 mM Z-LLE-AMC) and mixed. 950 μL buffer B (1×HEPES/0.05% Tween 20) was added to 50 μL stock solution of Tr-L substrate (20 mM BZ-VGR-AMC) and mixed. Working solutions were protected from light. A microwell plate (containing 12 columns of wells) was set-up according to a plate map as follows: 30 μL buffer A was pipetted into the wells of columns 1, 4, 7, and 10 (to measure Ch-L activity) and 3, 6, 9, and 12 (to measure Cas-L activity). 30 μL buffer B was pipetted into the wells of columns 2, 5, 8, and 11 (to measure Tr-L). 10 μL buffer A or B served as blank controls. 10 μL of processed samples were pipetted into duplicate wells for each substrate (i.e., 6 wells per processed plasma sample), to the designated wells according to the plate map. 10 μL of substrate was added to the designated wells according to the plate map. The final concentration of substrate was 200 μM. Cleavage of substrate was detected using the SPECTRAmax GEMINI EM instrument with SoftMax Pro data Collection software. The instrument incubation chamber temperature was set to 37° C. Fluorescence excitation and emission wavelengths were 380 nm and 460 nm, respectively. Samples were read at 1 minute intervals over 30 minutes. Green fluorescence was detected in columns 1, 4, 7, and 10, representing Ch-L activity; blue fluorescence was detected in columns 3, 6, 9, and 12, representing Cas-L activity; and yellow fluorescence was detected in columns 2, 5, 8, and 11, representing Tr-L activity.
A dose response study was conducted to determine the effect of concentration of YU-101 on Ch-L activity as assayed in plasma from an AML patient. YU-101 (200 ng/μL) was serially diluted 1:4 in HEPES buffer to produce solutions having concentrations of 0.78, 3.125, 12.5, 50, and 200 ng/μL for dose response experiments. 70 μL of plasma from an AML patient was combined with 1 μL inhibitor solution and incubated at room temperature for 15 minutes. Ch-L activity was determined as in Example 1.

[4] = biological target: T2, proteasomal caspase-like activity (Cas-L) (Homo sapiens, UniProt P28072); assay: Proteasome inhibitor effect on caspase-like (Cas-L) peptidase activity, fluorogenic Z-LLE-AMC assay; format: biochemical; settings: purified proteasome, plasma and white blood cell lysate; YU-101 0.4 μg/mL; substrate 200 μM
T2 construct: in samples of purified proteasome, plasma, and white blood cell lysate; from tissue; host or cells: purified proteasome; plasma; white blood cell lysate (normal individuals)
T2 sequence (P28072 1-239): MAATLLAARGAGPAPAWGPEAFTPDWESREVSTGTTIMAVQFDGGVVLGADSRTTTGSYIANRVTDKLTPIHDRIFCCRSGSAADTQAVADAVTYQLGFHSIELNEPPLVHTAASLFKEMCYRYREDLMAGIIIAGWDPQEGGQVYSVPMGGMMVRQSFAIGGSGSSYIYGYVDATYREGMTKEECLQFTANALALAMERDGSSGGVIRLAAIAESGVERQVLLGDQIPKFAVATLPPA
Description: as §1

[5] = tested on: proteasome Ch-L activity in whole blood cell lysate from a normal individual; assay: Dose response of Ch-L activity in whole blood lysate from a normal individual; format: biochemical, human; set-up: Activity: unit not given beside the values; settings: for % Inhibition / Activity: whole blood, normal individual
Description: as §2
A dose response study was conducted to determine the effect of concentration of YU-101 on Ch-L activity in a whole blood lysate from a normal individual. YU-101 (200 ng/μL) was serially diluted 1:2 in HEPES buffer to produce solutions having concentrations of 6.25, 12.5, 25, 50, and 100 ng/μL for dose response experiments. 70 μL of […] was combined with 1 μL inhibitor solution and incubated at room temperature for 15 minutes. Ch-L activity was determined as in Example 1.

[6] = biological target: T3, Pure human 20S proteasome (Homo sapiens, UniProt P28074); assay: Specificity of proteasomal enzymatic assay: Ch-L activity of purified 20S proteasome; format: biochemical; settings: Suc-LLVY-AMC
T3 construct: purchased Biomol International PW8720-0050

[7] = tested on: proteasomal chymotrypsin-like activity (Ch-L); assay: Proteasome inhibitor effect on chymotrypsin-like (Ch-L) peptidase activity, fluorogenic Suc-LLVY-AMC assay; format: biochemical, human; settings: purified proteasome, plasma and white blood cell lysate; YU-101 0.4 μg/mL; substrate 200 μM
Description: as §1

T1 sequence (P17538 34-164 limits assumed, other chains not shown): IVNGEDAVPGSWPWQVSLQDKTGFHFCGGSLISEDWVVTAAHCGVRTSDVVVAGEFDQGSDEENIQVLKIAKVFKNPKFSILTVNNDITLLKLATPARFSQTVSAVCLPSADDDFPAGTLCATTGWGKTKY
T1 sequence (P17538 167-263 limits assumed, other chains not shown): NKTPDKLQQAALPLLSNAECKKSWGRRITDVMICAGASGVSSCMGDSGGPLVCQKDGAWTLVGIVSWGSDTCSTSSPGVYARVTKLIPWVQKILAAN

CC(=O)NC(CCc1ccccc1)C(=O)NC(CC(C)C)C(=O)NC(Cc1ccccc1)C(=O)NC(CC(C)C)C(=O)C1(C)CO1 (centres unmarked) [YU-101]
inhibition of trypsin-L activity [1]: weaker inhibitor
Vmax Ch-L (fluorescence) ([2]; pancreatic α-chymotrypsin + YU-101, final 4 ng/μL): No activity
% Inhibition ([3]; approx. YU-101 0.00156 ng/μL): 0.00%
Activity ([3]; approx. YU-101 0.00156 ng/μL): 233781
% Inhibition ([3]; approx. YU-101 0.00625 ng/μL): 8.98%
Activity ([3]; approx. YU-101 0.00625 ng/μL): 212786
% Inhibition ([3]; approx. YU-101 0.025 ng/μL): 38.41%
Activity ([3]; approx. YU-101 0.025 ng/μL): 143991
% Inhibition ([3]; approx. YU-101 0.1 ng/μL): 62.54%
Activity ([3]; approx. YU-101 0.1 ng/μL): 87573
% Inhibition ([3]; approx. YU-101 0.4 ng/μL): 69.56%
Activity ([3]; approx. YU-101 0.4 ng/μL): 71162
inhibition of Ch-L activity, dose dependence ([3]; plasma of an AML patient): dose-dependent
inhibition of caspase-L activity [4]: weaker inhibitor
inhibition of Ch-L activity, dose dependence ([5]; whole blood cell lysate from a normal individual): dose-dependent
% Inhibition ([5]; approx. YU-101 0.0125 ng/μL): 3.2%
Activity ([5]; approx. YU-101 0.0125 ng/μL): 92002
% Inhibition ([5]; approx. YU-101 0.025 ng/μL): 24.0%
Activity ([5]; approx. YU-101 0.025 ng/μL): 72252
% Inhibition ([5]; approx. YU-101 0.05 ng/μL): 38.4%
Activity ([5]; approx. YU-101 0.05 ng/μL): 58544
% Inhibition ([5]; approx. YU-101 0.1 ng/μL): 82.0%
Activity ([5]; approx. YU-101 0.1 ng/μL): 17070
% Inhibition ([5]; approx. YU-101 0.2 ng/μL): 92.6%
Activity ([5]; approx. YU-101 0.2 ng/μL): 7024
Vmax Ch-L (fluorescence) ([6]; purified 20S proteasome + YU-101, final 4 ng/μL): No activity
inhibition of chymotrypsin-L activity [7]: strong inhibitor

B1: α1-anti-chymotrypsin: pancreatic chymotrypsin inhibitor (Sigma, catalog #A9285) (protein, UniProt P01011 24-423, looked up)
Alpha-1-antichymotrypsin: HPNSPLDEENLTQENQDRGTHVDLGLASANVDFAFSLYKQLVLKAPDKNVIFSPLSISTALAFLSLGAHNTTLTEILKGLKFNLTETSEAEIHQSFQHLLRTLNQSSDELQLSMGNAMFVKEQLSLLDRFTEDAKRLYGSEAFATDFQDSAAAKKLINDYVKNGTRGKITDLIKDLDSQTMMVLVNYIFFKAKWEMPFDPQDTHQSRFYLSKKKWVMVPMMSLHHLTIPYFRDEELSCTVVELKYTGNASALFILPDQDKMEEVEAMLLPETLKRWRDSLEFREIGELYLPKFSISRDYNLNDILLQLGIEEAFTSKADLSGITGARNLAVSQVVHKAVLDVFEEGTEASAATAVKITLLSALVETRTIVRFNRPFLMIIVPTDTQNIFFMSKVTNPKQA
Vmax Ch-L (fluorescence) ([2]; pancreatic α-chymotrypsin + α1-anti-chymotrypsin, final 40 ng/μL): No activity
Vmax Ch-L (fluorescence) ([6]; purified 20S proteasome + α1-anti-chymotrypsin, final 40 ng/μL): 121,813
